Results as given in patent publication US9782491B2, “Peptide conjugates for treating pain” (priority 2012, dated 2017).
Where “and” joins values, the source holds several entries; their conditions need not be identical. Equal values may be shown once. Read-outs that look alike come from different tables or passages of the source. Ends that are not written are not given here.

What was measured:
[1] = cell permeability; Wender et al.; cited from earlier work
d4T-treated rats = assay: d4T-induced mechanical hypersensitivity, paw withdrawal threshold; details: administered at 10 mg
rats with TNI = details: 10 mg/kg i.p.; evaluated at 1 h and 4 h
Procedure: Antinociceptive efficacy following acute and continuous systemic infusion. Test animals with tibial nerve injury (TNI)-induced neuropathic pain behavior (over 6 months) were administered to a single intraperitoneal injection or continual constant-rate infusion of polyarginine-conjugated CBD3A6K (ST2-106). Female Sprague-Dawley rats with TNI were administered a single injection of saline or 20 mg/kg of ST2-106.
Female Sprague-Dawley rats with TNI were infused with saline or ST2-106 over a 24 to 72 hour period using subcutaneously implanted Alzet® osmotic minipumps. […] Rats were used at 28 days after tibial nerve injury.
Paw-withdrawal thresholds (PWT in millinewtons, mN) were measured in naïve rats and rats subjected to spared nerve injury (i.e. tibial nerve ligation, TNI).
Paw-withdrawal thresholds (PWT in millinewtons, mN) were also measured in naïve rats and rats subjected to TNI when treated with compounds described herein or vehicle for extended periods.

[2] = tested on: adult Nf1+/- mice DRG neurons; assay: K+-stimulated release of iCGRP from Nf1+/- sensory neurons (RIA); type: cell-based, mouse
adult mouse DRG neurons = assay: K+-stimulated release of iCGRP from isolated sensory neurons (RIA); type: cell-based; details: 10 μM peptide; for basal or resting release of iCGRP: 3.5 mM KCl
Procedure: EXAMPLE. Primary dorsal root ganglion (DRG) neuronal cultures. Isolation of sensory neurons from 1 to 2 month old wildtype C57BL/6J and Nf1^+/− C57BL/6J littermates (34) was performed exactly as described previously (11,35,36) while DRGs from adult rats were prepared as per Brittain and colleagues (11). All animals were housed, bred, and had free access to food and water in the Indiana University Laboratory Animal Research Center and used in procedures approved by the Animal Use and Care Committee of the Indiana University School of Medicine. All animals were genotyped prior to use in experiments.
EXAMPLE. Stimulated-release of iCGRP. Measurement of stimulus-evoked release and content of immunoreactive CGRP (iCGRP) from isolated sensory neurons was accomplished as previously published (11,33,35). After 5-7 days in culture, media was removed and the basal or resting release of iCGRP was measured from cells incubated for 10 minutes in HEPES buffer consisting of (in mM): 25 HEPES, 135 NaCl, 3.5 KCl, 2.5 CaCl2, 1 MgCl2, 3.3 dextrose, and 0.1% (w/v) bovine serum albumin, pH 7.4, and maintained at 37° C. […] The amount of iCGRP released in each incubation was measured by a radioimmunoas say (RIA). The minimum amount of iCGRP detected by the RIA is 5 fmol with a 95% confidence interval (37). After the release protocol, the remaining peptide content in each well was determined by exposing the cells to 2 N acetic acid for 10 minutes. Aliquots of acid solution were diluted in HEPES and iCGRP levels were determined by RIA. The release of iCGRP during the 10 min incubation period is expressed as percent of the total content. […]
EXAMPLE. […] The KCl-stimulated release of CGRP was measured from sensory neurons exposed to TAT-control, TAT-L1 or TAT-Ct-dis peptides, at 10 μM (a concentration at which Ca^2+ influx was largely unaffected by both peptides), included in the 10 minutes prior to and throughout the high K^+ exposures (total peptide exposure of 30 min). […]

naïve rodents = details: in vivo, ip
[3] = molecular target: interaction between CaV2.2 and CRMP2 (Rattus norvegicus, UniProt P47942); assay: Immunoprecipitation with CaV2.2 antibody from rat dorsal root ganglia lysate, CRMP2 immunoblot; type: biochemical; details: 10 μM peptide added for 30 min; rat DRG
adult rat DRG neurons = assay: Fura-2 calcium imaging of K+-stimulated Ca2+ influx; type: cell-based
[4] = tested on: R-type (CaV2.3) Ca2+ currents; assay: R-type Ca2+ current recording in sensory neurons; type: cell-based
[5] = tested on: lumbar 4-5 DRG neurons from d4T-treated rats; assay: Current clamp recording of action potential firing; type: cell-based, rat; details: 10 μM
Procedure: EXAMPLE. […] Current clamp recordings were performed on small-to-medium (>30 μm->40 μm) diameter lumbar 4-5 DRG neurons from d4T-treated rats. Firing of 4-6 action potentials (APs) was elicited by a 1 second depolarizing current injection (ranging from 0.1 to 0.4 nA depending on the cell) every 30 seconds.

ddC-injected rats = assay: ddC model of peripheral neuropathy, von Frey paw withdrawal threshold; type: in vivo, rat

## R9: oligoarginine (SEQ ID NO: 1) (RRRRRRRRR)
[1]
  greater penetration than TAT: 100 fold

## YGRKKRRQRRRARSRLAELRGVPRGL [ST1-104]
d4T-treated rats
  effect on healthy animals (pre-d4T): Neither TAT-CBD3 nor TAT-CBD3A6K administered at 10 mg showed an effect

## RRRRRRRRRARSRLAELRGVPRGL [ST2-104]
Rats with TNI
  nerve-injury induced nociception (PWT): reverses nerve-injury induced nociception

## ARSRLAELRGVPRGL (listed as Homo sapiens) [CBD3, short peptide derived from CRMP2]
[2]; Nf1+/- neurons, 50 mM KCl, 10 μM peptide
  less iCGRP release compared to TAT-control: ~78%

## YGRKKRRQRRR-YLEWIFKAEEVMLAE (YGRKKRRQRRRYLEWIFKAEEVMLAE) [TAT-L1]
Adult mouse DRG neurons
  basal or resting release of iCGRP: 1.04±0.09 % total peptide content/10 min

## YGRKKRRQRRR-WEAKEMLYFEALVIE (YGRKKRRQRRRWEAKEMLYFEALVIE) [TAT-control, reference compound]
Adult mouse DRG neurons
  basal or resting release of iCGRP: 1.58±0.17 % total peptide content/10 min and 0.92±0.09 % total peptide content/10 min
[2]
  increase in iCGRP release over basal: 8 to 10 fold

## YGRKKRRQRRRARSRLKELRGVPRGL [ST1-105]
d4T-treated rats
  effect on healthy animals (pre-d4T): Neither TAT-CBD3 nor TAT-CBD3A6K administered at 10 mg showed an effect

## RRRRRRRRRARSRLKELRGVPRGL [ST2-106]
naïve rodents
  PWT in naïve animals: unaffected

## NSSFPSIHCSSWSEE [Ct-dis]
[3]
  amount of CRMP2 captured with CaV2.2 antibody: reduced the amount of CRMP2 that could be captured
Adult rat DRG neurons; 30 μM
  peptide-mediated inhibition of [Ca2+]c influx, Ct-dis versus L1: much more pronounced
Adult rat DRG neurons; 20 min incubation, 3 μM and 30 μM (FIG. 1), 46.5 mM KCl
  K+-stimulated [Ca2+]c influx: concentration-dependent decrease

## YGRKKRRQRRRARSRLAELLGVPRGL [ST1-106]
[4]
  R-type calcium current density: showed a significant decrease over control
[5]
  number of elicited action potentials: reduces the number of elicited action potentials

## YGRKKRRQRRR-NSSFPSIHCSSSWSEE [TAT-Ct-dis]
Adult mouse DRG neurons; 50 mM KCl
  less iCGRP release compared to TAT-control: ~70%
[2]
  less iCGRP release compared to TAT-control: ~70%
ddC-injected rats; 4 mg/kg i.p., two hours after injection
  peptide-induced reversal of hypersensitivity: diminished to pre-peptide levels
ddC-injected rats; ~4 mg/kg i.p., 1 h after injection, seven days after ddC
  reversal of tactile hypersensitivity (PWT): Almost complete reversal of tactile hypersensitivity
